Converted amounts (≈) assume the structure as drawn.
Tests used:
S. aureus RnpA = target: T1, S. aureus RnpA (Staphylococcus aureus, UniProt P0A0H5); test: gel-based RnpA-mediated spa mRNA degradation, inhibitory titration; assay type: biochemical; details: 1 pmol spa mRNA, 20 pmol RnpA, one hour at 37° C.; read-out: IC50 of RnpA-mediated RNA degradation
T1 construct: hexahistidine-tag (N); made in house; host or cells: E. coli BL21 (DE3)
Experimental: Specifically, members of the ActiProbe-25K and Natural Product libraries (29,940 compounds total; TimTec Inc.; Newark, Del.) were screened for small molecule inhibitors of S. aureus RnpA mediated total bacterial RNA degradation. All reactions (50 μl) were performed in 96-well format and contained 20 pmol RnpA, 200 ng S. aureus total RNA, and about 5 μM of each compound in 1× reaction buffer (2 mM NaCl, 2 mM MgCl2, 50 mM Tris-HCl, pH 6.0). Mixtures were incubated at 37° C. for 20 min at which time Quant-iT RiboGreen® (100 μl; Invitrogen) was added to quantify the amount of RNA substrate remaining. Percent enzyme inhibition was calculated as remaining substrate/starting substrate*100. For inhibitory titration assays, 1 pmol of spa mRNA was incubated with 20 pmol RnpA alone (positive control) or in the presence of increasing amounts (0, 25, 50, 100, 125, 150, 200, 250, and 500 μM) RNP1000 for one hour at 37° C. Following this, 20 μl of each reaction mixture were subjected to electrophoresis in a 1.2% formaldehyde-containing agarose gel and visualized by ethidium bromide staining.

S. aureus (MSSA) = test: CLSI broth microdilution MIC; assay type: cell-based, Staphylococcus aureus; details: Staphylococcus aureus, MSSA; strain UAMS-1
From the text: In some examples, compounds can be further assayed using the Mueller Hinton (MH) broth antibacterial assay as specified by the Clinical and Laboratory Standards Institute MIC broth microdilution protocol (see Methods for Dilution Antimicrobial Susceptibility Tests for Bacteria That Grow Aerobically; Approved Standard, In The Clinical and Laboratory Standards Institute (CLSI, formerly NCCLS), 7th ed., January 2006, 26 (2), M7-A7; see also Performance Standards for Antimicrobial Susceptibility Testing; Eighteenth Informational Supplement, In The Clinical and Laboratory Standards Institute (CLSI, formerly NCCLS), January 2008, 28 (1), M100-S18).
(§1) With the exception of RN4220-derivatives, in vitro activities of RNPA1000 against bacteria were determined by the broth microdilution method according to the Clinical and Laboratory Standards Institute (CLSI) guidelines using cation adjusted Mueller-Hinton broth or MH broth supplemented with 5% lysed horse blood (for testing Streptotococcus spp.). Microtiter plates containing serial dilutions of RNPA1000 (0, 4, 8, 16, 32, 64, and 128 μg/ml) were inoculated with 10^5 colony forming units (CFU)/ml and incubated for 18 hr at 37° C. […] The MIC value for each S. aureus strain was determined to be the median score of replicate measurements (n=5). Wells containing concentrations of RNPA1000≧MIC were plated for minimal bactericidal measurement. Where possible, experiments with VRSA strains were performed in a laminar flow hood to minimize potential for equipment contamination. For RN4220 cells containing plasmid vector (pCN51), RnpA overproducing plasmid (pRNPA-S) or RnpA underproducing plasmid (pRNPA-A.S.) in vitro antimicrobial activity of RNPA1000 was performed by the microdilution method as described above, except that cells were grown in Tryptic Soy Broth medium supplemented with 2.5 μM CdCl2 and 0, 1, 2, 4, 8, 16, 32, 64, or 128 μg/ml RNPA1000. Time-kill assays were also performed to monitor the antimicrobial properties of RNPA1000 for S. aureus strain UAMS-1 in the absence and presence of 0.25, 0.5, 2, and 4 times the strain's MIC for oxacillin (1 μg/ml), rifampicin (0.5 μg/ml), vancomycin (2 μg/ml), or daptomycin (1 μg/ml). The indicated amount of RNPA1000 and/or commercial antibiotic were added to mid-exponential phase (2×10^8 cfu/ml) S. aureus strain UAMS-1 cells and incubated at 37° C. Aliquots were removed at 0, 2, 4, 8, and 24 hr post-antimicrobial challenge, serial diluted, and plated to enumerate resulting cfu/ml. All time-kill assays were repeated at least 3 times.

S. aureus RN4220 = test: microdilution MIC of RnpA over- and under-producing cells; assay type: cell-based; details: Staphylococcus aureus, 2.5 μM CdCl2
Experimental: as §1, with “The indicated amount of RNPA1000 and/or commercial antibiotic were added to mid-exponential phase (2×10^8 cfu/ml) S. aureus strain UAMS-1 cells and incubated at 37° C. Aliquots were removed at 0, 2, 4, 8, and 24 hr post-antimicrobial challenge, serial diluted, and plated to enumerate resulting cfu/ml. All time-kill assays were repeated at least 3 times.” left out
To assess whether the susceptibility of S. aureus to RNPA1000 was attributable to the inhibition of cellular RnpA, the mRNA turnover properties of S. aureus that were challenged with a sub-inhibitory concentration of RnpA-inhibitor (0.5× MIC) were directly measured. […] To more directly determine whether RNPA1000's antimicrobial effects are mediated through cellular inhibition of RnpA, the RNPA1000 susceptibility of S. aureus RnpA over- and under-producing cells was assessed. […]

S. aureus strain UAMS-1 = test: time-kill assay; assay type: cell-based
Experimental: as §1

HepG2 human hepatocytes = test: MTT cytotoxicity assay; assay type: cell-based; details: for HepG2 cell toxicity: 24 hr exposure, any concentration tested (25, 50 μg/ml); for HepG2 cytotoxicity: 48 hr exposure
Experimental: It was then assessed whether RnpA-inhibitory agent concentrations corresponding to the effective bacterial MIC values (10-50 μg/ml) elicited human cell cytotoxicity. HepG2 human hepatocytes (10^5 cells) were seeded in individual wells of a microtitre plate and incubated for 16 hr at 37° C. with 5% carbon dioxide in Dulbecco's Modified Eagle Media supplemented with 10% fetal bovine serum. Cells were then challenged with Mitomycin C (5 μg/ml; positive control) or 0, 25, or 50 μg/ml RNPA1000 for either 24 or 48 hrs. Cell viability was measured spectrophotometrically (570 nm) following the addition and subsequent reduction of tetrazolium salt (MTT) within metabolically active cells, as per the manufacturer's recommendations (American Type Culture Collection; Manassas, Va.).

S. aureus strain Smith = test: acute lethal model of infection; assay type: in vivo, CD-1 mice; details: RNPA1000 128 mg/kg s.c., over the course of study
[1] = combination time-kill, data not shown

In the case of `Cc1cc(/C=C(/C#N)C(=O)Nc2cccc(Br)c2)c(C)n1-c1ccc(C(=O)O)cc1` [RNPA1000], the IC50 (S. aureus RnpA) is reported as 100 to 125 µM, the MIC (S. aureus (MSSA)) is reported as 26 µg/mL (≈ 56 µM) and the MIC (S. aureus RN4220; RN4220, RN4220 RnpA overproducing cells) is reported as 32 µg/mL. For the same compound, the MIC (S. aureus RN4220; RN4220, RN4220 RnpA underproducing cells (antisense)) was 8 µg/mL, the MIC (S. aureus RN4220; RN4220, RN4220 vector containing cells (pCN51)) was 32 µg/mL and the “mode of antimicrobial action in time kill assays” value (S. aureus strain UAMS-1; 0.25-4 times the MIC, 0-24 hr) was “bacteriostatic”. The “effect on the potency of oxacillin” value (S. aureus strain UAMS-1; combination time-kill, 0.5 times the MIC of each) was “mildly increase the potency”, the “effect on the antimicrobial activity of daptomycin” value (S. aureus strain UAMS-1; [1]) was “does not affect the antimicrobial activities” and the “effect on the antimicrobial activity of rifampicin” value (S. aureus strain UAMS-1; [1]) was “does not affect the antimicrobial activities”. The “effect on the antimicrobial activity of vancomycin” value (S. aureus strain UAMS-1; [1]) was “does not affect the antimicrobial activities”, the HepG2 cell toxicity (HepG2 human hepatocytes) was “not toxic” and the HepG2 cell toxicity (HepG2 human hepatocytes; listed as RNP1000) was “did not cause human HepG2 cell toxicity”. The HepG2 cytotoxicity (HepG2 human hepatocytes; 25 μg/ml) was “mildly toxic”, the HepG2 cytotoxicity (HepG2 human hepatocytes; 25 μg/ml, listed as RNP1000) was “mild cytotoxicity” and the HepG2 cytotoxicity (HepG2 human hepatocytes; higher concentrations than 25 μg/ml) was “increased toxicity”. The survival (S. aureus strain Smith) was 30%.

From patent publication US9233095B2, “Small molecule RNase inhibitors and methods of use” (University of Rochester, priority 2011, dated 2016)
